Data taken from paper PMC8097335, “A High‐Affinity Calmodulin‐Binding Site in the CyaA Toxin Translocation Domain is Essential for Invasion of Eukaryotic Cells” (Advanced Science, 2021).

Legend:
[1] = Synchrotron radiation circular dichroism, alpha-helical content (Bestsel); format: physicochemical; conditions: 25 °C, far-UV SRCD; for alpha-helical content, TFE 20%: 20% TFE; for alpha-helical content, POPC:POPG 8:2: SUVs POPC:POPG 8:2 at 2 mM lipid; for alpha-helical content, Solution: buffer A
Protocol: Synchrotron Radiation Circular Dichroism
Synchrotron radiation circular dichroism (SRCD) was performed on the DISCO beamline of the synchrotron SOLEIL (Saint -Aubin, France) . Spectra were recorded at 25°C with an integration time of 1.2 s and a bandwidth of 1 nm with a resolution of 1 nm. A far-UV spectrum represents the average of four individual scans. QS cells (Hellma, France) with a pathlength of 20, 50, 100 or 200 μm (depending on final protein concentrations) were used to record spectra in the fa r -UV range (from 190 to 250 nm). CD spectra of peptides and proteins were measured in buffers A and B, 20% of trifluoroethanol (TFE), in the presence of SUVs (POPC :PO PG 8: 2) or Ca M. Secondary structure content was estimated using Bestsel software […]
Table S8: Estimation of the α -helical content of P454-derived peptides. The secondary structure content is estimated using the on-line Bestsel software 17 available at http://bestsel.elte.hu/index.php. […]
peptide in buffer A, in 20% TFE and in the presence of POPC POPG (molar ratio 8:2) at 2 mM lipid concentration. The far -UV CD spectra of several P454-derived peptides are shown […]

[2] = Membrane permeabilization of ANTS/DPX-loaded LUVs; conditions: ANTS:DPX LUVs POPC:POPG 8:2, 0.45 mM lipid, buffer A pH 7.4, 25 °C, ex 390/em 515 nm; S.D. ± 5%
Protocol: To monitor membrane permeabilization induced by peptides, ANTS (fluorophore probe) and
DPX (quencher) were encapsulated into large unilamellar vesicles (LUVs). The LUVs were
prepared at a concentration of 10 mM lipid at a POPC:PO PG molar ratio of 8:2 containing 20
mM ANTS and 60 mM DPX. The multilamellar vesicle suspension was extrudedthrough 0.4-
and 0.2 μm polycarbonate filters to produce LUVs. The unencapsulated ANT S a nd DPX we re
removed by gel filtration with a 5 mL Sephadex G -25 column (GE Healthcare Life Sciences ).
For permeabilization assays, LUVs were incubated in buffer A at 0.45 mM lipid
concentration at 25°C in a 101-QS cuvette (Hellma, France) and under constant stirring.
excitation wavelength was set at 390 nm and the emission of ANTS was continuously
measured at 515 nm. The maximum intensity of permeabilization, corresponding to the
maximum recovery of ANTS fluorescence, was measured after addition of 0.1% of Triton
X100. The concentration of membrane-bound peptide s required to induce the recovery of half
intensity of the ANTS fluorescence (C P1/2) was extracted from the permeabilization intensity
a s a function of peptide concentration 1.
LUVs were incubated in buffer B at a lipid concentration of 0.45 mM.
After a few seconds of permeabilization,
holo-Ca M wa s added t o t he solution at a peptide:Ca M molar ratio of 1:3. EDT A wa s
subsequently added in excess to chelate calcium and convert holo -CaM to apo -C a M .

[3] = Peptide titrations by SUVs followed by tryptophan fluorescence (solution-to-membrane partition); format: physicochemical; conditions: for Partition coefficient KX: POPC:POPG 8:2 SUVs, buffer A pH 7.4, 25 °C, tryptophan fluorescence ratio 330/370 nm; for Partition coefficient KX / ∆GKx for POPC POPG 8:2: S.D. within ± 10%; for Kd: converted from KX: [W]/KX = Kd, [W] = 55.5 M, read-out: Kd for POPC:POPG 8:2; for ∆GKx for POPC POPG 8:2: ∆GKx = -RT Ln Kx
Protocol: Lipid vesicles preparation
Small unilamellar vesicles (SUVs) and large unilamellar vesicles (LUVs) were prepared with POPC and POPG at a molar ratio of 8:2, at a lipid concentration of 10 mM in buffer A, as previously described 1. Briefly, SUVs and LUVs were prepared by reverse phase evaporation and filtered through polycarbonate filters of 1 μm and 0.2 μm of pore size diameter to obtain L UV. SUVs were further sonicated. The hydrodynamic diameters and mean net charge of the vesicles were measured by dynamic light scattering (DLS) and electrophoretic mobility, respectively, using a ZetaSizer NanoZS (Malvern Pananalytical , Orsay, France) 11.
Peptide titrations bySUV s and CaM followed by tryptophan fluorescence
Titrations were carried out with a FP-8200 Jasco spectrofluorimeter, equipped with a Pelt ie r - thermostated ETC-272T at 25°C. A bandwidth of 5 nm was used for both excitation and […]
(Hellma, France) with constant stirring. Fluorescence emission was recorded between 300 and […]
400 nm at a scan rate of 100 nm/min, with an excitation wavelength of 280 nm. Fluorescence emission spectra were corrected for SUV or CaM baselines . Fluorescence intensity ratio at 330 nm over 370 nm was use d to measure the partition coefficient (K X) of peptides between the solution andmembrane s 1, 12 and the affinity (K d) of peptides for CaM 13.
Determination of partition coefficient KX and dissociation constant Kd from […]
The partition coefficient KX is defined as the ratio of protein in the lipid (PL) and in buffer […]
(PW) pha se s 12, 14, expressed by: KKXX = [LL ]? , giving[PPWW ] [PPWW ]= [WW], where [W] the […]
concentration of water (55.5 M) and [L] the lipid concentration.
The fraction of peptide partitioned into the membrane, fPL, is equal to:
ffPPLL = [PPLL ][PPTT ]= [PPLL ][PPLL ]+[PPWW ]= 11+([PPWW ])= 11+( [WW]), where PT is the total concentration of peptides [PP TT ]= [PP LL ]+ [PP WW ]. […]
The equations a re fitted to the experimental data using the KaleidaGraph software, providing the KX and K d value s. The partition coefficient is related to the apparent dissociation constant:
KKXX × KKdd = [WW ] and to the free energy of partition ΔG Kx = -RTln(K X), where ΔG is the free energy in kcal/mol, R the gas constant (R = 1.98 x 10-3 kcal/mol/K) and T the temperature i n Kelvin. The free energy of peptide CaM interaction, ∆G Kd, is given by ΔG Kd = RTln(K d).
Sedimentation velocity-Analytical ultracentrifugation (SV -AUC) […]
ratio 1:1 (at 70 µM each). Samples were incubated 2h at 20°C in the ultracentrifuge and, then span at 42,000 rpm in an An-50 Ti rotor. […]

[4] = target: T1, calmodulin (CaM) (Homo sapiens, UniProt P0DP23); assay: Peptide titrations by CaM followed by tryptophan fluorescence, and ITC (Kd for CaM); format: binding; conditions: for Kd: holo-CaM, from fluorescent titrations and ITC, 25 °C, average of at least three independent replicates; for Kd / ∆GKd for CaM: S.D. within ± 10%; for ∆GKd for CaM: ΔGKd = RTln(Kd)
T1 construct: made in house; host or cells: E. coli
Source text: peptides by CaM and is expressed as follows: 𝐾𝐾 𝑑𝑑 = [𝑃𝑃 ]∗[𝐶𝐶𝐶𝐶𝐶𝐶 ][𝑃𝑃:𝐶𝐶𝐶𝐶𝐶𝐶] , given 𝐾𝐾𝑑𝑑[𝐶𝐶𝐶𝐶𝐶𝐶]= [𝑃𝑃 ][𝑃𝑃 :𝐶𝐶𝐶𝐶𝐶𝐶]and the fraction of complex, fP:CaM, i s: 𝑓𝑓𝑃𝑃:𝐶𝐶𝐶𝐶𝐶𝐶 = [𝑃𝑃 :𝐶𝐶𝐶𝐶𝐶𝐶 ][𝑃𝑃:𝐶𝐶𝐶𝐶𝐶𝐶]+[𝑃𝑃]= 11+ [𝑃𝑃 ]= 11+ 𝐾𝐾𝑑𝑑.

Row | Substance | alpha-helical content, TFE 20% [1] [%] | alpha-helical content, POPC:POPG 8:2 [1] [%] | alpha-helical content, Solution [1] [%] | CP1/2, peptide concentration required to induce recovery of 50% of ANTS fluorescence intensity upon LUVs permeabilization [2] [µM] | Partition coefficient KX [3] | Kd [3] [µM] | ∆GKx for POPC POPG 8:2 [3] [kcal/mol] | Kd [4] [µM] | ∆GKd for CaM [4] [kcal/mol] | Decrease of affinity for CaM relative to P454 ([4]; from Table S3)
1 | Ac-ASAHWGQRALQGAQAVAAAQRLVHALALMTQ-NH2 [P454 I479L] | 51 ± 1 | 51 ± 5 | 13 ± 1 | 0.04 | 700 ×10^3 | 80 | -7.9 | 0.06 | -9.8 | 
2 | Ac-ASAHWGQRALQGAQAVAAAQRLVHAVALMTQ-NH2 [P454 I479V] | 47 ± 6 | 37 ± 2 | 2 ± 1 | 0.09 | 560 ×10^3 | 100 | -7.8 | 0.11 | -9.4 | 
3 | Ac-ASAHWGQRALQGAQAVAAAQRLVSAAALMTQ-NH2 [P454 H477S-I479A] | 51 ± 4 | 27 ± 3 | 2 ± 2 | 1.88 | 105 ×10^3 | 530 | -6.8 | 1.19 | -8.0 | ≈ 20 fold
4 | Ac-ASAHWGQRALQGAQAVAAAQRLVSAIALMTQ-NH2 [P454 H477S] | 40 ± 1 | 20 ± 2 | 4 ± 2 | 0.25 | 340 ×10^3 | 160 | -7.5 | 0.19 | -9.1 | 
